Data: patent publication US20230405014A1, “USE OF AN IRAK4 MODULATOR FOR GENE THERAPY” (Genzyme Corporation, priority 2022, published 2023)

Columns and labels:
[1] = test system: human monocytic dendritic cells; assay: Cytokine release from human monocytic dendritic cells co-treated with AAV and KT-474 (Luminex); type: cell-based; conditions: co-treatment with AAV at MOI 1e5, 24 hours, all KT-474 doses
Method: Preparation of Peripheral Blood Mononuclear Cells. Blood from leukopaks (Stem cell technologies) from different donors was decanted into 50 mL tubes and Dulbecco's phosphate buffered saline (DPBS) was added at a 1:1 ratio. The blood plus DBPS mix was gently pipetted into a separate 50 mL tube containing 15 mL Ficoll (GE17-5442-02) to ensure no mixing of the blood and Ficoll phases. The mixture was centrifuged at 2000 RPM for 25 minutes at room temperature (9 acceleration and no braking). The buffy coat containing the peripheral blood mononuclear cells (PBMCs) was collected, transferred to a new tube, and centrifuged for five minutes at 400 RCF. PBMCs were washed three times with phosphate buffered saline (PBS) containing 1% fetal bovine serum (FBS) or fetal calf serum (FCS) and counted.
Isolation of Monocytes. CD14+ monocytes were isolated from the PBMCs using CD14 MicroBeads following the manufacturer's protocol (Miltenyi Biotech, Germany, order no. 130-050-201, protocol available online world wide web miltenyibiotec.com/upload/assets/IM0001260.PDF). Briefly, PBMCs were incubated with […] CD14 MicroBeads per 10^7 total cells for 15 minutes at 2-8° C. PBMCs were applied onto a magnetic column (Miltenyi; world wide web miltenyibiotec.com/US-en/products/ls-columns.html #130-042-401) and unlabeled cells were allowed to pass through. After washing the column three times, the column was removed from the magnetic separator, (Miltneyi; world wide web miltenyibiotec.com/US-en/products/quadromacs-separator-and-starting-kits.html #130-091-051) placed on a collection tube, and magnetically labeled CD14+ monocytes were flushed out by pushing a plunger into the column.
Differentiation of Monocytes. […]
rAAV Production and Titration. rAAV vectors were produced using a standard triple transfection method (Sena-Esteves and Gao, Cold Spring Harb Protoc; doi:10.1101/pdb.top095513, 2020). All serotypes evaluated encode the same GFP transgene. Viruses were purified by cesium chloride ultracentrifugation and titrated using both silver staining and quantitative polymerase chain reaction (qPCR). […]

[2] = test system: primary human monocytic dendritic cells; assay: Cell viability of dendritic cells (Live/Dead staining, flow cytometry); type: cell-based; conditions: AAV at MOI 1e5 and KT-474 co-treated, 24 hours, at doses tested, three donors (FIG. 3)
[3] = test system: transgene LacZ specific CD8 T cells; assay: In vivo mouse model of AAV-induced immune response, LacZ tetramer staining; set-up: species or system C57BL/6J mice; conditions: KT-474 in chow 100 mg/kg from 15 days prior to intramuscular AAV
Method: In vivo mice experiments: C57BL/6J mice were purchased from Jackson Laboratories. 6-8-week male mice were divided into 3 groups—PBS group, AAV group and AAV+KT474 group all groups with 6 mice each. […] PBS group mice were injected intramuscularly with 100 ul PBS, AAV group was injected intramuscularly with 1e11 vg per quadricep muscle of both legs, 100 ul volume. AAV capsid used in the study had LacZ transgene. All animal experiments were conducted in accordance with the Institutional Animal Care and Use Committees at Sanofi, Framingham. Submandibular bleeds were performed weekly, and necropsy was performed three weeks post AAV injection.
The PBS and AAV only groups were fed regular chow and were bled on day 14 and necorpsied on day 21.
PBMC isolation 120 ul blood was collected in K2EDTA coated tubes. The blood was mixed with DBPS at 1:1 ration and pipetted into a separate tube containing Ficoll (GE17-5442-02) to ensure no mixing of the blood and Ficoll phases. The mixture was centrifuged at 2000 RPM for 25 minutes at room temperature (9 acceleration and no braking). […] PBMCs were washed three times with phosphate buffered saline (PBS) containing 1% fetal bovine serum (FBS) or fetal calf serum (FCS) and counted. The PBMC cells thus obtained were stained with different antibodies to quantify percentage of different immune cell subsets in peripheral blood. […]

Cn1c(=O)n(C2CCC(=O)NC2=O)c2cccc(C#CCOC3CCN(C[C@H]4CC[C@H](n5cc(NC(=O)c6cnn7ccc(N8C[C@H]9C[C@@H]8CO9)nc67)c(C(F)F)n5)CC4)CC3)c21 (stereo partly drawn) [KT-474]
AAV-induced secretion of IL1b ([1]; three donors (FIG. 2A)): blocked
AAV-induced secretion of IL6 ([1]; three donors (FIG. 2B)): blocked
AAV-induced secretion of TNFa ([1]; three donors (FIG. 2C)): blocked
cellular toxicity (cell viability) [2]: no cellular toxicity
LacZ tetramer positive (transgene LacZ specific) CD8 T cells in PBMCs ([3]; peripheral blood, 14 days post AAV injection (FIG. 6A)): reduced significantly
LacZ tetramer positive (transgene LacZ specific) CD8 T cells in spleen ([3]; splenocytes, 21 days post AAV injection (FIG. 6B)): reduced significantly
